Consider four compounds from patent US20210186962A1, “METHODS OF SCHIZOPHRENIA TREATMENT” (INTRA-CELLULAR THERAPIES, INC., priority 2019, published 2021).

Data set [1] relates to elderly subjects with dementia. The following applies: cited from earlier work.
The subject of data set [2] is patients with stable schizophrenia. In words: Uncontrolled open-label trial for up to 1 year. The data set is classed as in vivo, human. An excerpt:
A total of 4.7% of patients with normal hemoglobin A1c (<6.5%) at baseline developed elevated levels (>6.5%) post-baseline.

The test system of data set [3] is adult patients with a diagnosis of schizophrenia. In words: Study 1 (NCT01499563), four-week placebo-controlled, PANSS total score. The data set is classed as in vivo, human. An excerpt:
Study 1 (NCT01499563) was a four-week, randomized, double-blind, placebo-controlled, multi-center study in adult patients with a diagnosis of schizophrenia according to the DSM-IV-TR criteria. The primary efficacy measure was the Positive and Negative Syndrome Scale (PANSS) total score. The PANSS is a 30-item scale used to measure symptoms of schizophrenia. Each item is rated by a clinician on a seven-point scale. A score of 1 indicates the absence of symptoms, and a score of 7 indicates extremely severe symptoms. The PANSS total score may range from 30 to 210 with higher scores reflecting greater overall symptom severity.
Median age was 42 years (range 20 to 55 years). 17% were female, 19% were Caucasian, and 78% were African American.

In data set [4] the test system is adult patients with schizophrenia. Description: Pooled short-term (4- to 6-week) placebo-controlled schizophrenia trials, safety. The data set is classed as in vivo, human. The following applies: for Somnolence/Sedation, adverse reaction incidence: placebo 10%, 4-methylbenzenesulfonate. The protocol:
Of these patients, 811 participated in short-term (4- to 6-week), placebo-controlled trials with doses ranging from 14 to 84 mg/day.
In the 4- to 6-week trials, data were collected using the Simpson Angus Scale (SAS) for EPS (total score ranges from 0 to 40), the Barnes Akathisia Rating Scale (BARS) for akathisia (total score ranges from 0 to 14), and the Abnormal Involuntary Movement Scale (AIMS) for dyskinesia (total score ranges from 0 to 28).

Data set [5] concerns patients with schizophrenia. In words: QTcF four-arm crossover study. The data set is classed as in vivo, human. As for the experimental part:
QTcF interval was evaluated in a randomized, placebo- and active-(moxifloxacin 400 mg) controlled, four-arm crossover study utilizing concentration-QTc effect modeling in 33 patients with schizophrenia.

Data set [6] concerns adult patients with a diagnosis of schizophrenia. In words: Study 2 (NCT02282761), four-week placebo-controlled, PANSS total score. The data set is classed as in vivo, human. The text has this:
Study 2 (NCT02282761) was a four-week, randomized, double-blind, placebo-controlled, multi-center study in adult patients with a diagnosis of schizophrenia according to the DSM-5 criteria. The primary efficacy measure was the PANSS total score. […] Median age was 44 years (range 19 to 60 years); 23% were female, 26% were Caucasian and 66% were African American.

[7] abbreviates: 4- to 6-week trials, 60 mg tosylate daily, N = 406, placebo 1%.
Setting [8] is: 4- to 6-week trials, 60 mg tosylate daily, N = 406, placebo 2%.

Structures are written as SMILES. A value given as a limit tells only on which side of the number the result lay.

As for `O=C1CCc2ccc(OCCCCN3CCN(c4cccc(Cl)c4Cl)CC3)cc2N1` [aripiprazole], the “incidence of stroke and transient ischemic attack, including fatal stroke, versus placebo” value (“incidence … versus placebo” for short) in data set [1] was “higher incidence”.

Regarding `Cc1nc2n(c(=O)c1CCN1CCC(c3noc4cc(F)ccc34)CC1)CCCC2` [risperidone], the “incidence … versus placebo” value in data set [1] is recorded as “higher incidence”.

On to `Cc1cc2c(s1)Nc1ccccc1N=C2N1CCN(C)CC1` [olanzapine], for which, in data set [1], the “incidence … versus placebo” value is “higher incidence”.

On to `CN1CCN2c3c(cccc31)[C@@H]1CN(CCCC(=O)c3ccc(F)cc3)CC[C@@H]12.Cc1ccc(S(=O)(=O)O)cc1` [Lumateperone tosylate, 4-((6bR,10aS)-3-methyl-2,3,6b,9,10,10a-hexahydro-1H,7H-pyrido[3′,4′: 4,5]pyrrolo[1,2,3-de]quinoxalin-8-yl)-1-(4-fluoro-phenyl)-butan-1-one 4-methylbenzenesulfonate], for which the “mean change in body weight” value in data set [2] (Day 175, SD 5.6) was “approximately −2 kg”; in data set [2] (Day 350, SD 7.4), “approximately −3.2 kg”. Besides, in data set [2] (up to 1 year), the “patients with normal hemoglobin A1c (<6.5%) at baseline who developed elevated levels (>6.5%) post-baseline” value is 4.7%. For the same compound, the “reduction from baseline to Day 28 in PANSS total score compared to placebo” value in data set [3] (42 mg) and in data set [6] (42 mg) was “statistically significant reduction” in each case. The “PANSS Total, Placebo-subtracted Difference (95% CI)” value in data set [3] (42 mg, Day 28, CI −10.5, −1.1) was −5.8; in data set [6] (42 mg, Day 28, CI −7.8, −0.6), −4.2. Besides, the “PANSS Total, LS Mean Change from Baseline (SE)” value is on record as −13.2 (1.7) in data set [3] (42 mg, Day 28, N 84, placebo −7.4 (1.7)) and −14.5 (1.3) in data set [6] (42 mg, Day 28, N 150, placebo −10.3 (1.3)). The “treatment effect on PANSS total score vs. placebo” value in data set [3] (84 mg (two times the recommended daily dose)) and in data set [6] (28 mg (two-thirds of the recommended daily dose)) was “not statistically significant” each time. The “frequency of reported events related to extrapyramidal symptoms (EPS)” value in data set [4] (4- to 6-week placebo-controlled studies, placebo 6.3%) came out at 6.7%. Besides, in data set [4] (setting [7]), the “Creatine Phosphokinase Increased, adverse reaction incidence” value turned out to be 4%. Also, the “Fatigue, adverse reaction incidence” value in data set [4] (setting [7]) is recorded as 3%. For the same compound, in data set [4] (setting [7]), the “Hepatic Enzymes Increased (ALT, AST, “hepatic enzymes” increased, or liver function tests abnormal), adverse reaction incidence” value is 2%. In addition, the “Dry Mouth, adverse reaction incidence” value in data set [4] (setting [8]) is listed as 6%. Moreover, the “Vomiting, adverse reaction incidence” value in data set [4] (setting [8]) is 3%. Besides, the “Dizziness (dizziness, dizziness postural), adverse reaction incidence” value in data set [4] (4- to 6-week trials, 60 mg tosylate daily, N = 406, placebo 3%) is listed as 5%. Further, the “Nausea, adverse reaction incidence” value in data set [4] (4- to 6-week trials, 60 mg tosylate daily, N = 406, placebo 5%) was determined as 9%. Moreover, the “Somnolence/Sedation, adverse reaction incidence” value is 24% in data set [4] (4- to 6-week trials, 60 mg tosylate daily, N = 406) and 24% in data set [4] (4- to 6-week trials, 60 mg tosylate daily, N = 406, listed as lumateperone tosylate). Further, the “mean change from baseline, Barnes Akathisia Rating Scale (BARS)” value in data set [4] (4- to 6-week trials, score range 0 to 14, placebo 0) is recorded as −0.1. Besides, the “mean change from baseline, Abnormal Involuntary Movement Scale (AIMS)” value in data set [4] (4- to 6-week trials, score range 0 to 28, placebo 0) stood at 0.1. Further, the “mean change from baseline, Simpson Angus Scale (SAS)” value in data set [4] (4- to 6-week trials, score range 0 to 40, placebo 0) amounted to 0.1. The “frequency of orthostatic hypotension” value in data set [4] (clinical trials, placebo 0%) came to 0.7%. In data set [4] (clinical trials, placebo 0.2%), the rate of syncope is 0.2%. Moreover, the “rate of any single adverse reaction leading to discontinuation” value in data set [4] (none occurred at >2%) is not above 2%. For the same compound, in data set [4] (pooled placebo-controlled trials), the “mean changes from baseline and proportion of subjects with increase in weight ≥7% from baseline to end of study, versus placebo” value is “similar”. Also, the “placebo-corrected change from baseline QTcF (90% two-sided upper confidence interval)” value was 4.9 (8.9) ms in data set [5] (42 mg orally once daily for 5 days) and 15.8 (19.8) ms in data set [5] (supratherapeutic dose 126 mg orally once daily for 5 days).
